Data on seven compounds can be found in patent US12364702B2, “Highly active sting protein agonist compound” (ADLAI NORTYE BIOPHARMA CO., LTD., priority 2018, dated 2025).

pEC50: −log10 of the molar value. Like-named read-outs stand apart in the source and are kept apart here.

Format in all cases: cell-based
In experiment [1] the target is T1, STING HAQ variant (Homo sapiens, UniProt Q86WV6, G230A/R293Q/R71H).
T1 construct: host or cells: HEK-Blue ISG KO-STING cells (Invivogen, hkb-kostg)
Description: SEAP reporter assay in HEK-Blue ISG KO-STING cells transfected with STING HAQ variant (Method 1). The settings on record: compound 7.8 uM, 24 h, SEAP signal vs 0.5% DMSO. The method in brief: (§1)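 HEK-Blue ISG KO-STING cells transfected with 1 ng STING variant plasmid for 24 h at 37 °C, then compound-treated 24 h (0.5% DMSO final). SEAP chemiluminescence read in supernatant; viability by CellTiter-Glo. Values are compound signal relative to 0.5% DMSO.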
On the technique in general: Reporter assays use an easily measured gene product as a stand-in for the process of interest.

The target of experiment [2] is T2, STING WT variant (Homo sapiens, UniProt Q86WV6).
T2 construct: host or cells: HEK-Blue ISG KO-STING cells (Invivogen, hkb-kostg)
Description: SEAP reporter assay in HEK-Blue ISG KO-STING cells transfected with STING WT variant (Method 2). Further details: key: ratio of compound SEAP signal to 0.5% DMSO. The settings on record: 1 ng STING vector (WT variant), compound 2.5 uM, 24 h, SEAP signal vs 0.5% DMSO. From the text: (§2) Activation of STING can be determined using a SEAP reporter assay in HEK-Blue™ ISG KO-STING cells (Invivogen, cat #hkb-kostg) transfected with plasmids expressing STING variants (WT & HAQ) (referred to WO2017/175147A1). STING variants (WT & HAQ) vector were constructed based on STING-232H vector (Origene, RC208418). GFP vector (VT2069) was bought from Youbio. The detailed protocol as follows: HEK-Blue™ ISG KO-STING cells were harvest and seeding into 96 well plate and the final cell number was 0.8×10^5 cells/well. Transfections were prepared using Lipofectamine 2000 (Invitrogen, Cat #11668-027) following the manufacturer's instructions (Lipo2000/DNA=1/10), 20 ul of transfection suspension containing 1 ng (WT variant) or 0.0625 ng (HAQ variant) STING vector was added to cell culture plate and incubated at 37° C., 5% CO2 for 24 hours. After 24 hours incubation, compounds were added at proper concentration, the final DMSO concentration was 0.5%. After 24 h incubation, the supernatant was collected to detect SEAP signal using Great EscAPe SEAP chemiluminescence KIT (Clontech, cat #631738) and cells were collected to detect cell viability using CellTiter-Glo Luminescent Cell Viability Assay (Promega, cat #G7573) following the manufacturer's instructions. The data were described by the ratio of the stimulating signal of compounds to 0.5% DMSO.

The target of experiment [3] is T2, STING WT variant. Description: SEAP reporter assay in HEK-Blue ISG KO-STING cells transfected with STING WT variant (Method 1). The settings on record: compound 7.8 uM, 24 h, SEAP signal vs 0.5% DMSO. The method in brief: as §1
In experiment [4] the target is T1, STING HAQ variant. Description: SEAP reporter assay in HEK-Blue ISG KO-STING cells transfected with STING HAQ variant (Method 2). Also noted: key: ratio of compound SEAP signal to 0.5% DMSO. The settings on record: 0.0625 ng STING vector (HAQ variant), compound 5 uM, 24 h, SEAP signal vs 0.5% DMSO.
Text: as §2

A further experiment deals with STING (Homo sapiens, UniProt Q86WV6). Description: IFN-β secretion from THP1 by STING activation (hIFNβ ELISA). The method in brief:
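THP1 cells (2×10^6 cells/ml) exposed 24 h at 37° C, 5% CO2 to 8-point, 3-fold compound dilutions, 0.2% DMSO final, top dose set by solubility. Secreted IFN-β in supernatant measured by human IFNβ ELISA; EC50 from curve fitting.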
A general note: In an ELISA, binding on a coated surface is turned into a signal by an enzyme label.

[5] abbreviates: THP1 cells; 24 h incubation; IFN-β in supernatant; top dose set according to solubility; read-out: hIFNβ ELISA (EC50).

Chain of STING (Q86WV6 whole entry): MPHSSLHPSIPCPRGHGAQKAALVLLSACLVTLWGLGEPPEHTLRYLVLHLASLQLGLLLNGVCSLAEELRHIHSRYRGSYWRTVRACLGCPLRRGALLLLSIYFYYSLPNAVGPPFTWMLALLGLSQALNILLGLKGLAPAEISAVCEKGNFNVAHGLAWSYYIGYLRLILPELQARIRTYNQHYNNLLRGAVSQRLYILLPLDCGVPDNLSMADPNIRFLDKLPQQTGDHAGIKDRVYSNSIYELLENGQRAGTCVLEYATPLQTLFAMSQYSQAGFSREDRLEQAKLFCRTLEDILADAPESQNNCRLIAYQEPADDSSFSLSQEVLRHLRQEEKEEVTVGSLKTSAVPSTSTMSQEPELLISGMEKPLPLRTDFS
T1 sequence (Q86WV6 whole entry R71H/G230A/R293Q): as the sequence (Q86WV6 whole entry) above, with R71H, G230A, R293Q counted along it

On to `CCn1nc(C)cc1C(=O)Nc1nc2cc(C(N)=O)cc(OCCCOC)c2n1CCC[C@H]1COc2cc(C(N)=O)cc3nc(NC(=O)c4cc(C)nn4CC)n1c23` [Example 1, (S)-3-(3-(5-Carbamoyl-2-(1-ethyl-3-methyl-1H-pyrazole-5-carboxamido)-7-(3-methoxypropoxy)-1H-benzo[d]imidazol-1-yl)propyl)-2-(1-ethyl-3-methyl-1H-pyrazole-5-carboxamido)-3,4-dihydro-5-oxa-1,2a-diazaacenaphthylene-7-carboxamide], for which the results for the “Fold change related to DMSO control HAQ” value at STING HAQ variant [1] and on STING HAQ variant [4] were 36.93 and 24.13, respectively. Also, the “Fold change related to DMSO control WT” value at STING WT variant [2] turned out to be 13.65; at STING WT variant [3], 2.29. For the same compound, the pEC50 on STING (setting [5]) was 5.68.

`CCn1nc(C)cc1C(=O)Nc1nc2cc(C(N)=O)cc(OCCCNS(=O)(=O)C3CCNCC3)c2n1CCC[C@H]1COc2cc(C(N)=O)cc3nc(NC(=O)c4cc(C)nn4CC)n1c23` [Example 45, (S)-3-(3-(5-carbamoyl-2-(1-ethyl-3-methyl-1H-pyrazole-5-carboxamido)-7-(3-(piperidine-4-sulfonamido)propoxy)-1H-benzo[d]imidazol-1-yl)propyl)-2-(1-ethyl-3-methyl-1H-pyrazole-5-carboxamido)-3,4-dihydro-5-oxa-1,2a-diazaacenaphthylene-7-carboxamide]: the “Fold change related to DMSO control WT” value on STING WT variant [2] is given as 4.43. Moreover, on STING HAQ variant [4], the “Fold change related to DMSO control HAQ” value worked out at 21.63. Further, at STING (setting [5]), the negative-log EC50 (pEC50) was less than 4.30.

Regarding `CCn1nc(C)cc1C(=O)Nc1nc2cc(C(N)=O)cc(OCCCN)c2n1CCC[C@H]1COc2cc(C(N)=O)cc3nc(NC(=O)c4c(F)c(C)nn4CC)n1c23.Cl` [Example 51, (S)-3-(3-(7-(3-aminopropoxy)-5-carbamoyl-2-(1-ethyl-3-methyl-1H-pyrazole-5-carboxamido)-1H-benzo[d]imidazol-1-yl)propyl)-2-(1-ethyl-4-fluoro-3-methyl-1H-pyrazole-5-carboxamido)-3,4-dihydro-5-oxa-1,2a-diazaacenaphthylene-7-carboxamide hydrochloride], the “Fold change related to DMSO control WT” value at STING WT variant [2] was found to be 9.66. Further, at STING HAQ variant [4], the “Fold change related to DMSO control HAQ” value is 11.97. The pEC50 on STING (read-out: hIFNβ ELISA (EC50); THP1 cells; 24 h incubation; IFN-β in supernatant; top dose set according to solubility) is less than 4.30.

Regarding `CCn1nc(C)cc1C(=O)Nc1nc2cc(C(N)=O)cc(OCCCNC(=O)CN(C)C)c2n1CCC[C@H]1COc2cc(C(N)=O)cc3nc(NC(=O)c4c(F)c(C)nn4CC)n1c23` [Example 52, (S)-3-(3-(5-carbamoyl-7-(3-(2-(dimethylamino)acetamido)propoxy)-2-(1-ethyl-3-methyl-1H-pyrazole-5-carboxamido)-1H-benzo[d]imidazol-1-yl)propyl)-2-(1-ethyl-4-fluoro-3-methyl-1H-pyrazole-5-carboxamido)-3,4-dihydro-5-oxa-1,2a-diazaacenaphthylene-7-carboxamide], on STING WT variant [2], the “Fold change related to DMSO control WT” value is given as 11.79. For the same compound, at STING HAQ variant [4], the “Fold change related to DMSO control HAQ” value was determined as 18.32. For the same compound, on STING (setting [5]), the pEC50 was less than 4.30.

Regarding `CCn1nc(C)cc1C(=O)Nc1nc2cc(C(N)=O)cc(OCCCNC(=O)CN(C)C)c2n1CCC[C@H]1COc2cc(C(N)=O)cc3nc(NC(=O)c4c(Cl)c(C)nn4CC)n1c23` [Example 54, (S)-3-(3-(5-carbamoyl-7-(3-(2-(dimethylamino)acetamido)propoxy)-2-(1-ethyl-3-methyl-1H-pyrazole-5-carboxamido)-1H-benzo[d]imidazol-1-yl)propyl)-2-(4-chloro-1-ethyl-3-methyl-1H-pyrazole-5-carboxamido)-3,4-dihydro-5-oxa-1,2a-diazaacenaphthylene-7-carboxamide], the “Fold change related to DMSO control WT” value at STING WT variant [2] worked out at 13.02. The “Fold change related to DMSO control HAQ” value at STING HAQ variant [4] is given as 19.74. Further, the negative logarithm of the EC50 (pEC50) on STING (setting [5]) is 5.28.

In the case of `CCn1nc(C)cc1C(=O)Nc1nc2cc(C(N)=O)cc(OCCCNC(=O)CN3CCC(OC)CC3)c2n1CCC[C@H]1COc2cc(C(N)=O)cc3nc(NC(=O)c4cc(C)nn4CC)n1c23` [Example 42, (S)-3-(3-(5-carbamoyl-2-(1-ethyl-3-methyl-1H-pyrazole-5-carboxamido)-7-(3-(2-(4-methoxypiperidin-1-yl)acetamido)propoxy)-1H-benzo[d]imidazol-1-yl)propyl)-2-(1-ethyl-3-methyl-1H-pyrazole-5-carboxamido)-3,4-dihydro-5-oxa-1,2a-diazaacenaphthylene-7-carboxamide], the “Fold change related to DMSO control WT” value at STING WT variant [2] is 10.04. Also, the “Fold change related to DMSO control HAQ” value on STING HAQ variant [4] was found to be 17.42. For the same compound, at STING (setting [5]), the negative-log EC50 (pEC50) is 5.66.

Take `CCn1nc(C)cc1C(=O)Nc1nc2cc(C(N)=O)cc(OCCCNS(=O)(=O)CCN)c2n1CCC[C@H]1COc2cc(C(N)=O)cc3nc(NC(=O)c4cc(C)nn4CC)n1c23` [Example 44, (S)-3-(3-(7-(3-(2-aminoethylsulfonamido)propoxy)-5-carbamoyl-2-(1-ethyl-3-methyl-1H-pyrazole-5-carboxamido)-1H-benzo[d]imidazol-1-yl)propyl)-2-(1-ethyl-3-methyl-1H-pyrazole-5-carboxamido)-3,4-dihydro-5-oxa-1,2a-diazaacenaphthylene-7-carboxamide]: the “Fold change related to DMSO control WT” value at STING WT variant [2] was found to be 6.47. Besides, the “Fold change related to DMSO control HAQ” value at STING HAQ variant [4] turned out to be 31.46. The pEC50 at STING (setting [5]) was less than 4.40.

What is called pEC50 is the EC50 on a negative log10 scale, so that one unit is a factor of ten.
